This is an account of results in paper PMC12127550 (The Journal of Biological Chemistry, 2025).

“Also recorded” adds a separate entry of the source. Like-named read-outs stand apart in the source and are kept apart here.

One series relates to OATP1B3 F555H. To be noted: F555H mutation; cited from earlier work.
The test system of series [1] is OATP1B1. To be noted: cited from earlier work.
The next series deals with OATP1B1 H555F. The settings on record: H555 F variant; cited from earlier work.
Series [2] has as its system OATP1B1. The format is cell-based, human. To be noted: HEK293 over-expressing OATP1B1; substrate not specified at the place.

Consider `O=C(O[C@@H]1Cc2c(O)cc(O)cc2O[C@@H]1c1cc(O)c(O)c(O)c1)c1cc(O)c(O)c(O)c1` [EGCG, epigallocatechin gallate], for which the “EGCG transport by OATP1B3” value in the series with OATP1B3 F555H was “significantly reduced”.

`C=CC1=C(C)/C(=C/c2[nH]c(Cc3[nH]c(/C=C4\NC(=O)C(C)=C4C=C)c(C)c3CCC(=O)O)c(CCC(=O)O)c2C)NC1=O` [bilirubin]: the “inhibition of and transport by OATP1B1” value with OATP1B1 [1] (no reference given) is on record as “is a natural transport substrate, but does not inhibit transport”. On to `CO[C@H]1/C=C/O[C@@]2(C)Oc3c(C)c(O)c4c(O)c(c(/C=N/N5CCN(C)CC5)c(O)c4c3C2=O)NC(=O)/C(C)=C\C=C\[C@H](C)[C@H](O)[C@@H](C)[C@@H](O)[C@@H](C)[C@H](OC(C)=O)[C@@H]1C` [rifampicin], for which, in the series on OATP1B1 [1], the “inhibition of and transport by OATP1B1” value was “both inhibits and is transported by OATP1B1”. With “cholecystokinin-8: called an OATP1B1-specific substrate”, the “uptake by OATP1B1” value in the series on OATP1B1 H555F was “abolished”.

B1: Sb5: synthetic nanobody (sybody) that binds to OATP1B1 in both its apo and cyclosporine A-bound forms (antibody, V domains shown)
VH: QVQLVESGGGLVQAGGSLRLSCAASGFPVNLSYMHWYRQAPGKEREWVAAISSWGWHTEYADSVKGRFTISRDNAKNTVYLQMNSLKPEDTAVYYCHVRVGRSYFGQGTQVSVSA
In the case of B1, the “inhibition of OATP1B1 substrate transport” value in the series on OATP1B1 [2] is on record as “does not impair the ability of OATP1B1 to transport substrates; also recorded: did not inhibit substrate transport by OATP1B1”.
